We go through 2 compounds from patent publication US12414968B2, “Compositions comprising bacterially derived minicells and methods of using the same” (EnGeneIC Molecular Delivery Pty Ltd, priority 2018, dated 2025).

SMILES strings stand for the structures. Like-named read-outs stand apart in the source and are kept apart here.

One data set deals with JAWSII cells. Briefly: αGC-CD1d surface presentation on JAWSII cells (flow cytometry). It counts as cell-based, mouse. To be noted: 8h to 48h post-treatment; vs minicells alone and untreated. The method, then: Treatment of JAWSII spheroids with EDVαGC: JAWSII cells were treated with 1000 ng/ml αGC (positive control); empty minicells and minicellsαGC compared to untreated cells and collected at 8h, 16h, 24h and 48h post-treatment (FIG. 46A-46D).
Initial treatment preparation: 6 hanging drop suspension samples were used for each treatment group per time point. 5×10^4 JAWSII cells and 5×10^8 minicells ([…]) were used for each treatment sample and cultured in JAWSII cell culture media in a total volume of 50 μl. Extra untreated samples were prepared for isotype controls. The appropriate amount of minicells were pelleted by centrifugation at 12,000 g for 7 min and the supernatant was carefully removed by pipetting. Appropriate amount of live JAWS cells (based on the cell count from the previous section) were added to the pelleted minicells. The minicells were then dissociated into single-minicells-cell suspensions by gentle pipetting. The final volume of each sample was then made up by the addition of sterile culture media. […]
Staining the treated JAWSII cells with anti-alpha GalCer:mCD1d complex monoclonal antibody: The entire content of each hanging drop well was carefully collected using a P200 pipette and transferred into an Eppendorf tube. […] The samples were then analyzed using a Gallios flow cytometer.

The test system of data set [1] is Adreno-cortical cancer cell lines ACC01 and ACC07. Briefly: MTS cell proliferation assay, ACC01 and ACC07. To be noted: 72 hrs, lines derived from Stage IV patients. For orientation: Tetrazolium assays rely on reduction of a dye to a coloured formazan, in cell work by metabolically active cells.
Description: All cells were incubated for a further 72 hrs followed by the colorimetric MTS cell proliferation assay (Cory et al., Cancer Commun., 3(7): 207-12 (1991)) using the CellTiter 96 AQueous One Solution Cell Proliferation Assay (Promega Corp., Madison, Wis., USA), according to the manufacturer's instructions. The colorimetric measurements were read at 490 nm.
The test system of data set [2] is Glioblastoma cell line U87-MG. Briefly: MTS cell proliferation assay, U87-MG. It counts as cell-based. Particulars: 72 hrs.
The subject of data set [3] is human breast cancer cell line MDA-MB-468. Briefly: MTS cell proliferation assay, MDA-MB-468. It counts as cell-based. Particulars: 72 hrs.
In data set [4] the test system is bone marrow derived dendritic cells (BMDC) with CT26Ep12.1 cells. The experiment in a line: BMDC / treated CT26Ep12.1 co-culture. Format: cell-based, mouse. The method, then:
(§1) The effect of tumor cell death in response to Ep-EDV, Ep-EDV-682, and 682 treatment on dendritic cell maturation was also examined (FIGS. 27E-27I). Bone marrow derived dendritic cells (BMDC) were co-incubated with treated tumor cells (4T1 and CT26Ep12.1) for 48 h, followed by assessment of the production of the type 1 interferons IFNα and IFNβ. Increases in type 1 interferon production by dendritic cells is well established as a mechanism of dendritic cell maturation and enhanced antigen presentation as well as being vital for their interaction with other immune cell subsets including NK cells and T-cells (Fitzgerald-Bocarsly and Feng, 2007; Simmons et al., 2012).
(§2) Bone Marrow Derived DCs (BMDC): Bone marrow was isolated from the femurs and tibias of Balb/c mice. […]
(§3) Macrophage and DC/Tumor Cell Co-cultures: CT26Ep12.1 and 4T1 cells were harvested with Versene (Gibco) and cells were collected in 1 mL Eppendorf tubes. […] RAW264.7/tumor cell co-cultures were collected using a cell scraper and samples were stained with DAPI (Sigma), anti-CD45 Brilliant Violet 510 (BioLegend), anti-CD86 APC-Cy7, and anti-CD206 AF488 and assessed by flow cytometry. […] RNA concentration was determined on an Eppendorf biophotometer plus. […] Data was exported to excel and the relative quantitation was calculated from the ΔΔCt.

A further data set has as its system MiaPaca-2 cells. Briefly: MTS cell proliferation assay, MiaPaca-2. It counts as cell-based, human. To be noted: 72 hrs.
In data set [5] the test system is RAW264.7 cells co-cultured with treated 4T1 and CT26Ep12.1 cells. The experiment in a line: RAW264.7 / treated tumor cell co-culture. Format: cell-based, mouse. To be noted: then co-culture. How it is done: Macrophage and DC/Tumor Cell Co-cultures: CT26Ep12.1 and 4T1 cells were harvested with Versene (Gibco) and cells were collected in 1 mL Eppendorf tubes. Cells were resuspended in 1 mL DMEM (Sigma) supplemented with 10% FBS (Bovogen) containing: Ep-EDV (1000:1 and 5000:1—EDV:cells); Ep-EDV-682 (500:1 and 1000:1—EDV:cells); Ep-EDV-Dox (10,000:1—EDV:cell), 100 pmol PNU-159682, 5 μM Doxorubicin, or media alone. […] Cells were then washed thoroughly with PBS to remove any non-adherent EDV or excess drug. Treated tumor cells were cultured overnight with either RAW264.7 or BMDC at a 1:1 ratio of tumor cells:RAW264.7/BMDC/JAWS II. Supernatants were collected for ELISA analysis. RAW264.7/tumor cell co-cultures were collected using a cell scraper and samples were stained with DAPI (Sigma), anti-CD45 Brilliant Violet 510 (BioLegend), anti-CD86 APC-Cy7, and anti-CD206 AF488 and assessed by flow cytometry. JAWS II/tumor cell and BMDC/tumor cell co-cultures were collected with versene and stained with DAPI (Sigma), CD11b AF488 (Abcam), CD11c PE (Molecular Probes), anti-CD45 Brilliant Violet 510 or PECy5 (BioLegend), anti-CD86 APC-Cy7, MHC Class II PECy5 (Thermo Fisher), MHC Class II Brilliant Violet 421 (BioLegend), 7-AAD (BioLegend), and/or CD80 PE (Thermo Fisher) and assessed by flow cytometry. […] RNA concentration was determined on an Eppendorf biophotometer plus. […]

The test system of data set [6] is human colorectal cancer cell lines Caco-2 and HCT116. Briefly: MTS cell proliferation assay, Caco-2 and HCT116. Format: cell-based. Particulars: 72 hrs.
The test system of a further data set is MiaPaca-2 GemR cells. Briefly: MTS cell proliferation assay, MiaPaca-2 GemR. Particulars: 72 hrs. Format: cell-based, human.
The subject of data set [7] is bone marrow derived dendritic cells (BMDC) with 4T1 cells. The experiment in a line: BMDC / treated 4T1 co-culture. Format: cell-based, mouse. How it is done: as §1, §2, §3
Data set [8] relates to human lung cancer cell line A549. The experiment in a line: MTS cell proliferation assay, A549. Format: cell-based. Particulars: 72 hrs.
Another data set relates to RAW264.7 cells. Briefly: RAW264.7 cells incubated directly with EDVs. Format: cell-based, mouse. To be noted: direct incubation. From the text:
Results: M1 macrophage polarization and dendritic cell maturation in response to EDV Treatment: Due to the fact that the EDV is derived from Salmonella Typhimurium bacteria, the outer EDV membrane contains a substantial lipopolysaccharide (LPS) content (MacDiarmid et al., 2007b). The interaction of high doses of LPS with macrophages is well known to result in macrophage activation and M1 polarization. To determine if the EDV was capable of eliciting a similar phenotypic response, RAW264.7 cells were incubated with Ep-EDV-682 and Ep-EDV and examined for changes in macrophage phenotype and cytokine production. Expression of the co-stimulatory CD86 expression is known to be a phenotypic indicator of macrophage polarization as well as a hallmark of the antitumor M1 tumor associated macrophages (TAMs) (Dong et al., 2016).
Treatment of RAW264.7 cells with EDVs: RAW264.7 cells were seeded in 6-well plates at 3×10^5 cells per well and incubated overnight. […] Cells were harvested 6h and 24h post treatment using a cell scraper and samples were stained with DAPI (Sigma), anti-CD45 Brilliant Violet 510 (BioLegend), anti-CD86 APC-Cy7 (BioLegend), and anti-CD206 AF488 (R&D Systems) and assessed by flow cytometry.

Data set [9] has as its system patient derived pancreatic ductal adenocarcinoma cells (head and tail). Briefly: Drug sensitivity of patient derived PDAC cells. It counts as cell-based, human. How it is done: PDAC cells obtained from resected tumor tissue from both the head and tail of the pancreas were examined for drug sensitivity.
The dosed was administered over 20 min via a 20 ml niki pump and premedications were given prior to dosing as before (van Zandwijk et al., 2017). Serum biochemistry, haematology and cytokine expression was evaluated pre and 3 hours post each dose. CA19-9 and C-reactive protein levels were monitored at least bi-weekly. Peripheral Blood mononuclear cells (PBMCs) were examined by flow cytometry prior to dosing and at the end of the cycle for changes in anti-tumour immune cell numbers. Tumour tissue was obtained from the original surgical resection and PDAC cells were cultured and tested for drug sensitivity and surface receptors expression.

The test system of data set [10] is drug-resistant cancer cells. Particulars: Quintieri et al., 2005; cited from earlier work.

In the case of `CCCCCCCCCCCCCCCCCCCCCCCCCC(=O)N[C@@H](CO[C@H]1O[C@H](CO)[C@H](O)[C@H](O)[C@H]1O)[C@H](O)[C@H](O)CCCCCCCCCCCCCC` [free α-GC, α-galactosylceramide], in the data set with JAWSII cells, the “anti-GalCer:mCD1d staining (αGC surface presentation)” value is “clear shift”.

Consider `COc1cccc2c1C(=O)c1c(O)c3c(c(O)c1C2=O)C[C@@](O)(C(=O)CO)C[C@@H]3OC1CC2C(OC3C(OC)OCCN23)C(C)O1` (stereo partly drawn) [PNU-159682, 3′-deamino-3″,4′-anhydro-[2″(S)-methoxy-3″(R)-oxy-4″-morpholinyl] doxorubicin], for which, in data set [1], the “cytotoxic effect / resistance of the cell lines” value is listed as “potent cytotoxic effects”. The results for the “inhibition of proliferation / resistance of the cell line” value in data set [2] and in [3] were “could inhibit proliferation” and “inhibited proliferation”, respectively. Also, the “type 1 interferon mRNA production” value in data set [4] and in data set [7] was “unable to elicit increases” throughout. Besides, the “inhibition of proliferation / resistance of the cells” value with MiaPaca-2 cells and with MiaPaca-2 GemR cells was “could inhibit proliferation” each time. Besides, the “CD86 expression on RAW264.7 cells” value in data set [5] is reported as “unable to produce any significant change”. For the same compound, the “production of TNF-α and IL-6 (Th1 cytokines)” value in data set [5] is on record as “no increase”. Also, in data set [6], the “inhibition of proliferation / resistance of the cell lines” value was “inhibited proliferation”. In addition, in [8], the cytotoxicity entry is listed as “greater cytotoxicity”. Moreover, the CD86 expression result with RAW264.7 cells is “did not induce the same response”. Moreover, the drug sensitivity entry in data set [9] is “sensitive”; in [9] (listed as 682), “extreme sensitivity”. Also, the IC50 entry in data set [9] (head and tail PDAC cells) is “pM range”. In addition, in data set [10], the “IC50s for even drug-resistant cancer cells” value is reported as “pM range”.
